Measured values taken from US5952390A, “10-substituted 1,8-dihydroxy-9(10H) anthracenone pharmaceuticals” (Teva Pharmaceutical Industries Ltd., priority 1998, dated 1999).

Assay: Lipid peroxidation in bovine brain phospholipid liposomes
Conditions: Table I (Addendum); n = 3 or more; standard errors average 20%; read-out: LPO IC50
Protocol: Phospholipids were prepared essentially as described by Gutteridge, J. M. C., "The Measurement of Malondialdehyde in Peroxidised Ox-Brain Phospholipid Liposomes", Anal. Biochem., 82, 76-82 (1977). Bovine brain, cooled on ice, was freed from blood vessels and washed repeatedly with 0.15M NaCl, pH 7.4. It was cut to pieces and then macerated with an ultra-turrax, passed through a close-meshed sieve, and extracted four times with four times the volume of acetone. The extraction mixture was filtered by suction to remove the acetone, the residue was dried under vacuum, and then repeatedly extracted with petroleum ether (40-60) using twice the volume of the original brain homogenate. The combined extracts were filtered, dried at 45° C., and dissolved in ether (one fifth of the original brain volume). The mixture was treated with five times the volume of acetone, and the resulting precipitate was collected by suction-filtration, dried and stored under N2 at -20° C. in the dark. Bovine brain phospholipids were weighed into glass tubes and shaken in a vortex mixer (Heidolph) in the presence of five small glass beads (.phi. 4 mm) for 1 min. […]
The following reagents were added to glass tubes in the order and at the final concentrations stated. […] The organic layer was separated by centrifugation at 3000 rpm (15 min) and the absorbance at 532 nm was measured against butanol.

IC50: 4 µM
SMILES: CCCC(=O)C1c2cccc(O)c2C(=O)c2c(O)cccc21 [Butantrone, 10-Butyryl-Dithranol]
